Measured values: US20040077676A1 (priority 2003, published 2004)

Tests used:
[1] = system: SH-SY5Y human neuroblastoma cells; experiment: Neurite lengths in NGF-treated SH-SY5Y neuroblastoma cells; format: cell-based; conditions: NGF 10 ng/ml alone; SH-SY5Y cells at 168 hr; mean
Protocol: SH-SY5Y human neuroblastoma cells were maintained in DMEM medium (GIBCO) supplemented with 10% fetal calf serum (SIGMA), 50 I.U./ml of penicillin, and 50μg/ml streptomycin (GIBCO) at 37° C. in 7% CO2. Cells were plated in six-well plates at 15,000 cells/well and treated with 0.4 μM aphidicolin (SIGMA). […] Medium was changed at 96 h and replaced with fresh medium for an additional 72 h (total time, 168 h). Duplicate wells were run in all experiments and the data were averaged for each treatment group. Analysis of neurite lengths in SH-SY5Y neuroblastoma cells:
For analysis of process length, cells (20 fields per well) were randomly photographed at 168 h. Neurite lengths were measured on photographic prints using a Houston Instrument HI-PAD digitizing tablet connected to an IBM XT computer with appropriate software (Bioquant IV, R & M Biometrics, Nashville, Tenn.); only those processes greater than two-fold of the cell body length were measured. Data from identically treated wells were not different and were therefore combined.

FKBP12 = FKBP12 (Homo sapiens, UniProt P62942); experiment: Binding assay to FKBP12; conditions: in vitro
Protocol: The binding assay was performed according to a similar manner to that of Tamura, K., et al (Biochemical arid Biophysical Research Communications, Vol. 202, No. 1, 437-499, 1994).

[2] = system: Mixed lymphocyte reaction (MLR); experiment: Mixed lymphocyte reaction (MLR); format: cell-based; conditions: for IC50: Lymphocyte, in vitro
Protocol: MLR test was performed according to a similar manner to that of U.S. Pat. No. 4,929,611

sciatic nerve crush = experiment: Functional recovery in the rat sciatic nerve crush model (semi-quantitative behavioral score); format: in vivo; conditions: scale 0-4
Protocol: Nine 6-week-old male Sprague-Dawley rats were anesthetized with 2% halothane, the right sciatic nerve was exposed, and the nerve was crushed twice (for a total of 60 s using a No.7 Dumont jeweler's forceps) at the level of the hip. The crush site was marked by tying a sterile 9-0 suture through the epineurial sheath.
Compound (Ia) was dissolved in vehicle comprising 30% dimethylsulfoxide (DMSO):70% saline. Three axotomized rats received subcutaneous daily injections either Compound (Ia) (1 or 5 mg/kg) or an equivalent volume of vehicle (30% DMSO in saline) (5ml/kg)
Animals were examined daily until the day of perfusion (18 days). The following semi-quantitative scale was used to evaluate the functional recovery of the animals:
0: paralysis with the foot turned-out upon walking and the toes curved;
1: ability to right the foot and move the toes;
2: ability to constantly walk on the foot;
For the behavioral analysis, mean values for recovery of function were compared using one-way ANOVA followed by the Newman-Keuls multiple comparisons test for comparison of individual values. For the morphometric analysis, mean values for the number of axons were compared using one-way ANOVA followed by the Newman Keuls multiple comparisons test for comparison of individual values.

[3] = system: Embryonic hippocampal neurons; experiment: Neurite (axon) lengths in primary embryonic hippocampal neuron cultures; format: cell-based, rat; conditions: 10 nM, primary hippocampal cell cultures in rats at 72 hr, mean
Protocol: Embryonic hippocampal neurons were obtained from rat pups on embryonic day 18.5 (“El8.5”), according to Banker and Cowan (Brain Research, 1977, 126: 397425). Briefly, the hippocampal regions were removed, minced, and incubated in 100 I.U. papain at 37° C. for 45 min, and the cells were resuspended in complete neuronal medium: minimal essential medium without L-glutamine (GIBCO, Grand Island, NY), 1.5 ml/100 ml medium of high glucose minimal essential medium (GIBCO), 0.1 ml/100 ml medium of serum extender (Hito +Tm; Collaborative Research Inc, Lexington, Mass.), glutamine (GIBCO), 5% fetal calf serum (GIBCO). Cells were seeded onto coverslips (500 cells/coverslip) coated with poly-L-lysine. The coverslips were inverted onto dishes that had been precoated with a monolayer of cortical astrocytes. Hippocampal neurons (identified by their characteristic polarity and dendrites) were examined daily and randomly photographed (9-12 frames/coverslip) at 72 h. Axon (defined as the longest process) lengths were measured on photographic prints using a Houston Instrument HI-PAD digitizing tablet connected to an IBM XT computer with appropriate software (Bioquant IV, R & M Biometrics, Nashville, TN); only processes more than three-fold of the cell body length were measured. Data from identically treated coverslips (three or four per group) were not different and therefore were combined.

FKBP12, sequence (P62942 whole entry, species assumed): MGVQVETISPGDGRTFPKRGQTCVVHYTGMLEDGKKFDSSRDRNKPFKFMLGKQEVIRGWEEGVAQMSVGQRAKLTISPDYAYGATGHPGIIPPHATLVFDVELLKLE

Compound | Neurite Lengths [1] [μm] | IC50 (FKBP12) [nM] | IC50 [2] [nM] | immunosuppressive activity ([2]; conclusion in words from MLR result) | Functional Score (sciatic nerve crush; 1 mg/kg s.c. daily, Day 15) | Functional Score (sciatic nerve crush; 1 mg/kg s.c. daily, Day 16) | Functional Score (sciatic nerve crush; 1 mg/kg s.c. daily, Day 17) | Functional Score (sciatic nerve crush; 5 mg/kg s.c. daily, Day 15) | Functional Score (sciatic nerve crush; 5 mg/kg s.c. daily, Day 16) | Functional Score (sciatic nerve crush; 5 mg/kg s.c. daily, Day 17) | Neurite Lengths [3] [μm] | Neurite Lengths ([3]; listed as tacrolimus)
NGF: nerve growth factor, used at 10 ng/ml to induce process outgrowth | 198.8 ± 8.991 | – | – | – | – | – | – | – | – | – | – | –
CO[C@H]1C[C@@H](C)C/C(C)=C/C(CC(C)=O)C(=O)C[C@H](O)[C@@H](C)[C@@H](/C(C)=C/[C@@H]2CC[C@@H](O)[C@H](OC)C2)OC(=O)[C@@H]2CCCCN2C(=O)C(=O)[C@]2(O)OC1[C@@H](OC)C[C@H]2C (stereo partly shown) [Compound (Ia)] | – | < 5 | > 100 | does not have immunosuppressive activity | 2.58 ± 0.17 | 2.83 ± 0.17 | 3.08 ± 0.22 | 3.17 ± 0.08 | 3.50 ± 0.00 | 3.50 ± 0.00 | – | –
C=CC[C@@H]1/C=C(\C)C[C@H](C)C[C@H](OC)[C@H]2O[C@@](O)(C(=O)C(=O)N3CCCC[C@H]3C(=O)O[C@H](/C(C)=C/[C@@H]3CC[C@@H](O)[C@H](OC)C3)[C@H](C)[C@@H](O)CC1=O)[C@H](C)C[C@@H]2OC [Tacrolimus, tacrolimus] | – | – | < 2 | – | – | – | – | – | – | – | 423.4 ± 19.50 | no significant difference
